Test: pH-dependent aqueous solubility of the active ingredient
Format: physicochemical

O=c1[nH]c2ccccc2n1CCN1CCN(c2cccc(C(F)(F)F)c2)CC1 [active ingredient, 1-[2-(4-(3-trifluoromethyl-phenyl)piperazin-1-yl)ethyl]-2,3-dihydro-1H-benzimidazol-2-one]
solubility (pH 2): good solubility
aqueous solubility (pH values 5.5-6.8): poor
